# Measurements reported in US20120232107A1, “NON-PEPTIDE ANTAGONISTS OF GASTRIN RELEASING PEPTIDE” (The Government of the United States of America as …, priority 2003, published 2012).
# “Also recorded” adds a separate entry of the source.
# Tests used:
# GRP = molecular target: T1, GRP (Homo sapiens, UniProt P07492); assay: IP3 analysis for GRP in H-1299 cells; assay type: cell-based; details: peptide GRP; IP3 or Ca2+ levels induced by GRP in H1299 cells
# T1 construct: GRP is a 27 amino acid peptide; purchased Peninsula (S. Carlos, Calif.); host or cells: synthetic peptide
# T1 sequence (P07492 24-50 limits assumed): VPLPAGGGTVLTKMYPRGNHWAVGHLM
# Protocol: This cell line was obtained from ATCC and cultured as the other cell lines. The signal transduction pathway for GRP includes elevation of intracellular levels of IP3 and Ca^2+ and these were investigated as previously shown (Ryan et al. (1998) J. Biol. Chem., 273, 13613-13624). Briefly, to quantify IP3, contents cells were subcultured into 24-well plates (5×10^4 cells/well). After a 24 h incubation period at 37° C., the cells were incubated with 3 μCi/ml myo-[^3H]inositol in growth medium supplemented with 2% FBS for an additional 24 h. Incubation volumes were 500 μl of assay buffer/well containing 135 mM sodium chloride, 20 mM HEPES (pH 7.4), 2 mM calcium chloride, 1.2 mM magnesium sulfate, 1 mM EGTA, 20 mM lithium chloride, 11.1 mM glucose, and 0.05% BSA (v/v) with or without any of the molecules studied at 37° C. for 30 min. Experiments were terminated with 1 ml of ice-cold hydrochloric acid/methanol (0.1%, v/v). [^3H]IP3 was eluted off Dowex AG-1-X8 anion exchange columns with 2 ml of 1 mM ammonium formate and 100 mM formic acid. Each of the eluates was collected and mixed with 10 ml of scintillation mixture (BioSafe, Research Products International Corp, Mount Prospect, Ill.), and the radioactivity was measured in a LS 3801 β counter (Beckman, Somerset, N.J.).
# [1] = system: Bovine retinal microvascular endothelial cells; assay: Cord formation assay in Matrigel; assay type: cell-based
# Protocol: Formation of tube-like structures was performed as described in Kubota et al. (1988) J. Cell Biol. 107, 1589-1598; Nam et al. (2003) Phytother. Res. 17, 107-111; and Macpherson et al. (2003) Mol Cancer Ther 2, 845-54. Briefly, a thin layer of Matrigel (Collaborative Biomedical Products, Bedford, Mass.) was allowed to polymerize at the bottom of 24-well plates. […] After an overnight incubation at 37° C., the tubular structures were photographed (3 pictures per well at 10×) and the number of knots per photographic field were counted as a measure of lattice complexity.
# GRP-induced angiogenesis = assay: Directed in vivo angiogenesis assay (DIVAA); parameters: species or system mice; details: 1 nM GRP in angioreactors, nude mice, 11 days
# Protocol: Analysis and quantitation of angiogenesis was done using DIVAA as previously described (Martinez et al. (2002) J Natl Cancer Inst 94, 1226-37). Briefly, 10 mm long surgical-grade silicone tubes with only one end open (angioreactors) were filled with 20 μl of matrigel alone or mixed with GRP and the small molecules at the indicated concentrations. After the matrigel solidified, the angioreactors were implanted into the dorsal flanks of athymic nude mice (NCI colony). After 11 days, the mice were injected iv with 25 mg/ml FITC-dextran (100 μl/mouse, Sigma) 20 min before removing angioreactors. Quantitation of neovascularization in the angioreactors was determined as the amount of fluorescence trapped in the implants and was measured in a HP Spectrophotometer (Perkin Elmer).
# [2] = system: lung cancer cell line H1299; assay: Proliferation assay (growth inhibition MTT); assay type: cell-based; details: H1299, serum-free medium, 5 days
# Protocol: A. Tumor cells (from a lung cancer cell line, H1299) were seeded in 96-well plates at a density of 2.0×10^5 cells per well in serum-free medium containing different concentrations of the test agent, the small molecule inhibitor compound XV′ (77427). After 5 days in culture, the number of viable cells per well was estimated by the growth inhibition MTT assay (as reported in Iwai et al. (1999) Lung Cancer 23, 209-22).
# cell line A345 = assay: Clonogenic assay in soft agar; assay type: cell-based; details: A345, 3 weeks
# Protocol: B. Cells from the cell line […] were grown in substrate-independent conditions (clonogenic assay) as previously published (Iwai et al., supra).
# H1299 xenograft = assay: In vivo tumor growth (xenograft experiment); parameters: species or system mice
# Protocol: Thirty female athymic nude mice from the NIH colony in Frederick (MD) were injected subcutaneously with 1.0×10^7 H1299 cells/mouse. Two weeks later, all the mice had developed palpable tumors under the skin and at this time they were randomly divided in three groups. Three times a week, each individual tumor was measured (length, height, thickness) and every mouse received an intratumoral injection, according to their group. Group 1 (control) received 100 μl PBS (negative control); group 2 received 100 μl 0.5 μM compound XV′ (77427) in PBS; and group 3 received 100 μl 5 μM compound XV′ (77427) in PBS. When the tumor burden became unbearable (larger than 2000 mm^3), the mice were sacrificed.
compound,measurement,setting,value
Nc1nc(Cl)cc(NCCO)n1 [compound 77427],Action on second messengers,GRP,Antagonists
same,number of knots per photographic field,[1]; 5 nM GRP and 0.5 μM compound added together,12±4
same,complexity of the tubular lattice,[1]; 5 nM GRP plus 0.5 μM compound,marked decrease; also recorded: reduces network complexity; also recorded: greatly reduced
same,Biological activity (cord formation),[1]; GRP-induced cord formation,Inhibits cord
same,inhibition of GRP-induced angiogenesis,GRP-induced angiogenesis,dose-dependent inhibition
same,inhibition of GRP-induced angiogenesis,GRP-induced angiogenesis; listed as XV′,inhibited
same,growth inhibitory action on lung cancer cells (MTT),[2],modest dose-dependent growth inhibitory action
same,number of colonies in soft agar,cell line A345,reduces the number of colonies
same,tumor size,H1299 xenograft; after a single intratumoral injection,significantly reduced
same,tumor size,H1299 xenograft; after the second intratumoral injection,all but disappeared
